Experimental data as given in patent US20240390340A1 (INCYTE CORPORATION, priority 2023, published 2024).

Assays:
[1] = molecular target: KRAS G12D (Homo sapiens, UniProt P01116, G12D); assay: GDP-GTP exchange assay (bodipy-GDP/GppNHp, SOS1), KRAS G12D; assay type: biochemical; conditions: bodipy-loaded KRAS G12D 2.5 nM, 4 h pre-incubation; value for the most potent isomer quoted for certain compounds; read-out: G12D (KRAS G12D exchange assay IC50)
Procedure: (§1) The inhibitor potency of the exemplified compounds was determined in a fluorescence based guanine nucleotide exchange assay, which measures the exchange of bodipy-GDP (fluorescently labeled GOP) for GppNHp (Non-hydrolyzable GTP analog) to generate the active state of KRAS in the presence of SOS1 (guanine nucleotide exchange factor). Inhibitors were serially diluted in DMSO and a volume of 0.1 μL was transferred to the wells of a black low volume 384-well plate. 5 μL/well volume of bodipy-loaded KRAS G12D diluted to 2.5 nM in assay buffer (25 mM Hepes pH 7.5, 50 mM NaCl, 10 mM MgCl2 and 0.01% Brij-35) was added to the plate and pre-incubated with inhibitor for 4 h at r.t. Appropriate controls (enzyme with no inhibitor or with a G12D inhibitor) were included on the plate. The exchange was initiated by the addition of a 5 μL/well volume containing 1 mM GppNHp and 300 nM SOS1 in assay buffer. The 10 μL/well reaction concentration of the bodipy-loaded KRAS G12D, GppNHp, and SOS1 were 2.5 nM, 500 μM, and 150 nM, respectively. The reaction plates were incubated at r.t. for 2 h, a time estimated for complete GDP-GTP exchange in the absence of inhibitor. For the KRAS G12V mutant, similar guanine nucleotide exchange assays were used with 2.5 nM as final concentration for the bodipy loaded KRAS proteins and 3 h incubation after adding GppNHp-SOS1 mixture. A cyclic peptide described to selectively bind G12D mutant (Sakamoto et al., BBRC 484.3 (2017), 605-611) or internal compounds with confirmed binding were used as positive controls in the assay plates. Fluorescence intensities were measured on a PheraStar plate reader instrument (BMG Labtech) with excitation at 485 nm and emission at 520 nm.
(§2) Either GraphPad prism or Genedata Screener SmartFit was used to analyze the data. The IC50 values were derived by fitting the data to a four parameter logistic equation producing a sigmoidal dose-response curve with a variable Hill coefficient.
(§3) The symbol “†” indicates IC50≤100 nM, “††” indicates IC50>100 nM but ≤1 μM; and “†††” indicates IC50 is >1 μM but ≤5 μM, “††††” indicates IC50 is >5 μM but ≤10 μM. “NA” indicates IC50 not available.

[2] = molecular target: KRAS G12V (Homo sapiens, UniProt P01116, G12V); assay: GDP-GTP exchange assay (bodipy-GDP/GppNHp, SOS1), KRAS G12V; assay type: biochemical; conditions: KRAS G12V mutant; value for the most potent isomer quoted for certain compounds; read-out: G12V (KRAS G12V exchange assay IC50)
Procedure: as §1, §2, §3

Chain of KRAS G12D (P01116 1-188 isoform P01116-2 G12D): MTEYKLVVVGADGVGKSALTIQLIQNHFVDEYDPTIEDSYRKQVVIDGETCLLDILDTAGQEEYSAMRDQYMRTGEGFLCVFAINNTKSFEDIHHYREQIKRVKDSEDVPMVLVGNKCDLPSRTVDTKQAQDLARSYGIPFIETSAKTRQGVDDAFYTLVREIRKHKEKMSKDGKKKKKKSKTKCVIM
Chain of KRAS G12V (P01116 1-188 isoform P01116-2 G12V): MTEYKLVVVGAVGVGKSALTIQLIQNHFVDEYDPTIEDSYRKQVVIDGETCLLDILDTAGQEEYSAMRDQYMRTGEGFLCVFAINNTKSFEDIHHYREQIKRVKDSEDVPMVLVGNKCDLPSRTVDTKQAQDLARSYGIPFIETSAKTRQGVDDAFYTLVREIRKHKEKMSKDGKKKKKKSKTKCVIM

Row | SMILES | IC50 [1] [nM] | IC50 [2] [nM]
1 | Cc1nc2c(F)c(-c3cccc(Cl)c3Cl)c(CCC#N)cc2c2c1cc([C@H]1C[C@H](n3cc(C4CCCC4)nn3)CN1C(=O)C1CC1)n2[C@H]1[C@H]2CN[C@@H]1C2 [Example 183] | ≤ 100 | ≤ 100
2 | Cc1nc2c(F)c(-c3cccc(Cl)c3Cl)c(CCC#N)cc2c2c1cc([C@H]1C[C@H](OC[C@@H]3CCCC[C@H]3C)CN1C(=O)C1CC1)n2[C@H]1[C@H]2CN[C@@H]1C2 [Example 286] | 1000 to 5000 | 100 to 1000
3 | Cc1nc2c(F)c(-c3cccc(Cl)c3Cl)c(CCC#N)cc2c2c1cc([C@H]1C[C@H](Oc3cc(Cl)cc(C#N)c3)CN1C(=O)C1CC1)n2[C@H]1[C@H]2CN[C@@H]1C2 [Example 191] | ≤ 100 | ≤ 100
4 | Cc1nc2c(F)c(-c3cccc(Cl)c3Cl)c(CCC#N)cc2c2c1cc([C@H]1C[C@H](n3cnc(C4CCC4)n3)CN1C(=O)C1CC1)n2[C@H]1[C@H]2CN[C@@H]1C2 [Example 347] | ≤ 100 | ≤ 100
5 | Cc1nc2c(F)c(-c3cccc(Cl)c3Cl)c(CCC#N)cc2c2c1cc([C@H]1C[C@H](OC(C)c3ccccn3)CN1C(=O)C1CC1)n2[C@H]1[C@H]2CN[C@@H]1C2 (some centres unmarked) [Example 226] | ≤ 100 | ≤ 100
6 | Cc1nc2c(F)c(-c3cccc(Cl)c3Cl)c(CCC#N)cc2c2c1cc([C@H]1C[C@H](OC(C)c3nccs3)CN1C(=O)C1CC1)n2[C@H]1[C@H]2CN[C@@H]1C2 (some centres unmarked) [Example 363] | ≤ 100 | ≤ 100
7 | Cc1nc2c(F)c(-c3cccc(Cl)c3Cl)c(CCC#N)cc2c2c1cc([C@H]1C[C@H](OCc3ccn(C(F)(F)F)n3)CN1C(=O)C1(C)CC1)n2[C@H]1[C@H]2CN[C@@H]1C2 [Example 310] | ≤ 100 | ≤ 100
8 | Cc1nc2c(F)c(-c3cccc(Cl)c3Cl)c(CCC#N)cc2c2c1cc([C@H]1C[C@H](OC[C@H]3C[C@@H](C#N)C3)CN1C(=O)C1CC1)n2[C@H]1[C@H]2CN[C@@H]1C2 [Example 403] | ≤ 100 | ≤ 100
9 | Cc1nc2c(F)c(-c3cccc(Cl)c3Cl)c(CCC#N)cc2c2c1cc([C@H]1C[C@H](Oc3cnn(C(F)(F)F)c3)CN1C(=O)C1CC1)n2[C@H]1[C@H]2CN[C@@H]1C2 [Example 374] | ≤ 100 | ≤ 100
10 | Cc1nc2c(F)c(-c3cccc(Cl)c3Cl)c(CCC#N)cc2c2c1cc([C@H]1C[C@H](Oc3ccn(C)n3)CN1C(=O)C1CC1)n2[C@H]1[C@H]2CN[C@@H]1C2 [Example 170] | ≤ 100 | ≤ 100
11 | CO[C@@H]1CC[C@@H](O[C@H]2C[C@H](c3cc4c(C)nc5c(F)c(-c6cccc(Cl)c6Cl)c(CCC#N)cc5c4n3[C@H]3[C@H]4CN[C@@H]3C4)N(C(=O)C3CC3)C2)C1 [Example 440] | ≤ 100 | ≤ 100
12 | Cc1nc2c(F)c(-c3cccc(Cl)c3Cl)c(CCC#N)cc2c2c1cc([C@H]1C[C@H](O[C@@H](C)c3ccccn3)[C@@H](C)N1C(=O)C1CC1)n2[C@H]1[C@H]2CN[C@@H]1C2 [Example 245] | ≤ 100 | ≤ 100
13 | Cc1nc2c(F)c(-c3cccc(Cl)c3Cl)c(CCC#N)cc2c2c1cc([C@H]1C[C@H](n3ccc(C(F)F)n3)CN1C(=O)C1CC1)n2[C@H]1[C@H]2CN[C@@H]1C2 [Example 318] | ≤ 100 | ≤ 100
14 | Cc1nc2c(F)c(-c3cccc(Cl)c3Cl)c(CCC#N)cc2c2c1cc([C@H]1C[C@H](OC[C@@H]3CCCN3)CN1C(=O)C1CC1)n2[C@H]1[C@H]2CN[C@@H]1C2 [Example 449] | ≤ 100 | ≤ 100
15 | Cc1cn([C@H]2C[C@H](c3cc4c(C)nc5c(F)c(-c6cccc(Cl)c6Cl)c(CCC#N)cc5c4n3[C@H]3[C@H]4CN[C@@H]3C4)N(C(=O)C3CC3)C2)cn1 [Example 282] | ≤ 100 | ≤ 100
16 | COc1ccc(O[C@H]2C[C@H](c3cc4c(C)nc5c(F)c(-c6cccc(Cl)c6Cl)c(CCC#N)cc5c4n3[C@H]3[C@H]4CN[C@@H]3C4)N(C(=O)C3CC3)C2)cn1 [Example 301] | ≤ 100 | ≤ 100
17 | Cc1nc2c(F)c(-c3cccc(Cl)c3Cl)c(CCC#N)cc2c2c1cc([C@H]1C[C@H](OCc3cnn(C(F)(F)F)c3)CN1C(=O)C1CC1)n2[C@H]1[C@H]2CN[C@@H]1C2 [Example 311] | ≤ 100 | ≤ 100

Further lines, results first:

Row | IC50 [1] [nM] | IC50 [2] [nM] | SMILES
18 | ≤ 100 | ≤ 100 | Cc1nc2c(F)c(-c3cccc(Cl)c3Cl)c(CCC#N)cc2c2c1cc([C@H]1C[C@H](n3cc(C(F)F)nn3)CN1C(=O)C1CC1)n2[C@H]1[C@H]2CN[C@@H]1C2 [Example 380]
19 | 100 to 1000 | ≤ 100 | N#CCCc1cc2c(nc(C3=CCS(=O)(=O)CC3)c3cc([C@H]4C[C@H](OCc5c(F)cccc5F)CN4C(=O)C4CC4)n([C@H]4[C@H]5CN[C@@H]4C5)c32)c(F)c1-c1cccc(Cl)c1Cl [Example 240]
20 | ≤ 100 | ≤ 100 | Cc1nc2c(F)c(-c3cccc(Cl)c3Cl)c(CCC#N)cc2c2c1cc([C@H]1C[C@H](OC[C@@H]3CCCO3)CN1C(=O)C1CC1)n2[C@H]1[C@H]2CN[C@@H]1C2 [Example 400]
21 | ≤ 100 | ≤ 100 | CC(=O)N(C)Cc1cn([C@H]2C[C@H](c3cc4c(C)nc5c(F)c(-c6cccc(Cl)c6Cl)c(CCC#N)cc5c4n3[C@H]3[C@H]4CN[C@@H]3C4)N(C(=O)C3CC3)C2)nn1 [Example 271]
22 | ≤ 100 | ≤ 100 | N#CCCc1cc2c(nc(C3CCNC3)c3cc([C@H]4C[C@H](OCc5c(F)cccc5F)CN4C(=O)C4CC4)n([C@H]4[C@H]5CN[C@@H]4C5)c32)c(F)c1-c1cccc(Cl)c1Cl (some centres unmarked) [Example 239]
23 | ≤ 100 | ≤ 100 | CCOC(=O)c1cnn([C@H]2C[C@H](c3cc4c(C)nc5c(F)c(-c6cccc(Cl)c6Cl)c(CCC#N)cc5c4n3[C@H]3[C@H]4CN[C@@H]3C4)N(C(=O)C3CC3)C2)n1 [Example 393]
24 | ≤ 100 | ≤ 100 | Cc1nc2c(F)c(-c3cccc(Cl)c3Cl)c(CCC#N)cc2c2c1cc([C@H]1C[C@H](Oc3ccnn3C(F)(F)F)CN1C(=O)C1CC1)n2[C@H]1[C@H]2CN[C@@H]1C2 [Example 406]
25 | ≤ 100 | ≤ 100 | [2H]C([2H])(O[C@H]1C[C@H](c2cc3c(C)nc4c(F)c(-c5cccc(Cl)c5Cl)c(CCC#N)cc4c3n2[C@H]2[C@H]3CN[C@@H]2C3)N(C(=O)C2CC2)C1)c1nscc1C [Example 233]
26 | ≤ 100 | ≤ 100 | Cc1nc2c(F)c(-c3cccc(Cl)c3Cl)c(CCC#N)cc2c2c1cc([C@H]1C[C@H](n3nnc(CO)c3C)CN1C(=O)C1CC1)n2[C@H]1[C@H]2CN[C@@H]1C2 [Example 326]
27 | ≤ 100 | ≤ 100 | Cc1nc2c(F)c(-c3cccc(Cl)c3Cl)c(CCC#N)cc2c2c1cc([C@H]1C[C@H](OCc3cnn(C)n3)CN1C(=O)C1CC1)n2[C@H]1[C@H]2CN[C@@H]1C2 [Example 105]
28 | ≤ 100 | ≤ 100 | Cc1nc2c(F)c(-c3cccc(Cl)c3Cl)c(CCC#N)cc2c2c1cc([C@H]1C[C@H](OCc3ccccc3)CN1C(=O)C1(C)CC1)n2[C@H]1[C@H]2CN[C@@H]1C2 [Example 127]
29 | ≤ 100 | ≤ 100 | Cc1nc2c(F)c(-c3cccc(Cl)c3Cl)c(CCC#N)cc2c2c1cc([C@H]1C[C@H](n3cnc(C4CC4)n3)CN1C(=O)C1CC1)n2[C@H]1[C@H]2CN[C@@H]1C2 [Example 278]
30 | ≤ 100 | ≤ 100 | Cc1nc2c(F)c(-c3cccc(Cl)c3Cl)c(CCC#N)cc2c2c1cc([C@H]1C[C@H](n3cc(CC4CCNC4=O)nn3)CN1C(=O)C1CC1)n2[C@H]1[C@H]2CN[C@@H]1C2 (some centres unmarked) [Example 269]
31 | ≤ 100 | ≤ 100 | Cc1nc2c(F)c(-c3cccc(Cl)c3Cl)c(CCC#N)cc2c2c1cc([C@H]1C[C@H](OCc3cccnc3C(F)(F)F)CN1C(=O)C1CC1)n2[C@H]1[C@H]2CN[C@@H]1C2 [Example 268]
32 | ≤ 100 | 100 to 1000 | Cc1nc2c(F)c(-c3cccc(Cl)c3Cl)c(CCC#N)cc2c2c1cc([C@H]1C[C@H](OC3CCc4ccccc43)CN1C(=O)C1CC1)n2[C@H]1[C@H]2CN[C@@H]1C2 (some centres unmarked) [Example 337]
33 | ≤ 100 | ≤ 100 | COc1cc(C#N)ccc1O[C@H]1C[C@H](c2cc3c(C)nc4c(F)c(-c5cccc(Cl)c5Cl)c(CCC#N)cc4c3n2[C@H]2[C@H]3CN[C@@H]2C3)N(C(=O)C2CC2)C1 [Example 292]
34 | ≤ 100 | ≤ 100 | Cc1nc2c(F)c(-c3cccc(Cl)c3Cl)c(CCC#N)cc2c2c1cc([C@H]1C[C@H](Oc3cccnc3C#N)CN1C(=O)C1CC1)n2[C@H]1[C@H]2CN[C@@H]1C2 [Example 294]
